Values of other authors as cited in patent US9795630B2, “Compositions and methods for inducing or enhancing connective tissue repair” (Glenpharma AB, priority 2009, dated 2017).

Test system: superficial digital flexor tendon injuries
Details: horses; Dyson 1977/1997 & 2004

N#CCCN.N#CCCN.O=C(O)/C=C/C(=O)O [BAPN, B-aminoproprionitrile fumarate]
benefit of intralesional treatment (healing, recovery time, tendon repair) compared with controlled exercise alone: failed to show any benefit
